Test results reported in the supplement of paper PMC10307832.

Assays:
Salubrinal = compound: O=C(/C=C/c1ccccc1)NC(NC(=S)Nc1cccc2cccnc12)C(Cl)(Cl)Cl [Salubrinal]; assay: relative viability (nuclei count vs DMSO), 5 days (fraction); higher = more cells survive
In short: (§1)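 Acceptance criteria were a control CV below 25% and at least one doubling per plate. Lung cancer cell lines in 1536-well plates got five library-drug doses (not always all listed) √10 apart by pinning and were left 5 days with no medium change. Viability divides treated-well nuclei by vehicle-well nuclei and is the median across plates. Nuclei were counted by MetaXpress from 4× Hoechst images.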

[1] = compound: Cc1ccc2nc(NCCN)c3ncc(C)n3c2c1; assay: as above
In short: as §1

Row | Cell Line | relative viability (Salubrinal; 0.08 µM) | relative viability (Salubrinal; 0.253 µM) | relative viability (Salubrinal; 0.8 µM) | relative viability (Salubrinal; 2.53 µM) | relative viability (Salubrinal; 8 µM) | relative viability ([1]; 0.04 µM) | relative viability ([1]; 0.1265 µM) | relative viability ([1]; 0.4 µM) | relative viability ([1]; 1.265 µM) | relative viability ([1]; 4 µM)
1 | NCI-H460 | 1.16 | 0.946 | 1.11 | 0.983 | 0.918 | 0.99 | 0.971 | 0.99 | 0.999 | 0.943
2 | NCI-H520 | 1.05 | 1.01 | 1.07 | 1.03 | 1.14 | 1.13 | 0.912 | 0.933 | 0.915 | 0.845
3 | NCI-H522 | 0.947 | 0.819 | 1.1 | 1.02 | 0.921 | 0.882 | 1.04 | 0.909 | 1.03 | 1.02
4 | NCI-H596 | 1.08 | 0.89 | 1.01 | 0.896 | 0.982 | 0.952 | 0.934 | 1.02 | 0.937 | 0.909
5 | NCI-H647 | 1.18 | 0.98 | 1.11 | 0.964 | 0.884 | 1.13 | 0.993 | 0.934 | 0.865 | 0.741
6 | NCI-H650 | 0.839 | 1.04 | 1.08 | 1.11 | 0.912 | 1.03 | 1.03 | 0.797 | 1.02 | 0.941
7 | NCI-H661 | 1.09 | 0.928 | 0.992 | 0.937 | 0.998 | 1 | 1.03 | 0.996 | 0.985 | 0.969
8 | NCI-H727 | 1.01 | 1.45 | 1.11 | 0.827 | 0.797 | 0.969 | 0.734 | 1.14 | 0.949 | 0.994
9 | NCI-H838 | 1.1 | 0.987 | 1.07 | 1.07 | 0.922 | 1.03 | 0.951 | 0.912 | 0.907 | 0.929
10 | NCI-H1299 | 1.03 | 1.06 | 1 | 0.996 | 0.987 | 1.01 | 0.986 | 0.969 | 0.972 | 0.928
11 | NCI-H1355 | 1.11 | 0.941 | 1.03 | 0.979 | 0.955 | 1.05 | 0.983 | 0.938 | 0.995 | 0.935
12 | NCI-H1395 | 0.882 | 1.01 | 1.08 | 1.01 | 0.769 | 0.959 | 0.941 | 0.844 | 0.859 | 0.633
13 | NCI-H1437 | 0.992 | 0.922 | 1.12 | 1.02 | 0.968 | 1.02 | 0.982 | 0.988 | 0.939 | 0.873
14 | NCI-H1563 | 1.01 | 0.942 | 0.943 | 0.919 | 0.911 | 1.02 | 0.909 | 0.947 | 1.03 | 1.01
15 | NCI-H1623 | 1.08 | 1.18 | 0.949 | 1.1 | 0.997 | 1.01 | 0.838 | 0.961 | 0.887 | 0.937
16 | NCI-H1648 | 0.921 | 0.788 | 0.741 | 0.741 | 0.356 | 0.858 | 0.903 | 0.918 | 0.615 | 0.679
17 | NCI-H1650 | 1.1 | 0.795 | 1.03 | 0.893 | 0.912 | 0.983 | 0.903 | 0.865 | 0.915 | 0.772

Row | Cell Line | relative viability (Salubrinal; 0.08 µM) | relative viability (Salubrinal; 0.253 µM) | relative viability (Salubrinal; 0.8 µM) | relative viability (Salubrinal; 2.53 µM) | relative viability (Salubrinal; 8 µM) | relative viability ([1]; 0.04 µM) | relative viability ([1]; 0.1265 µM) | relative viability ([1]; 0.4 µM) | relative viability ([1]; 1.265 µM) | relative viability ([1]; 4 µM)
18 | NCI-H1651 | 1.13 | 0.905 | 1.13 | 0.964 | 0.988 | 1.02 | 0.95 | 0.991 | 0.971 | 0.917
19 | NCI-H1666 | 0.953 | 0.99 | 0.987 | 0.888 | 1.2 | 1.08 | 0.951 | 0.962 | 0.993 | 0.993
20 | NCI-H1703 | 1.12 | 1.03 | 0.994 | 0.881 | 0.942 | 1.07 | 1.07 | 1.01 | 1.16 | 0.91
21 | NCI-H1734 | 1.02 | 0.882 | 1.14 | 1.01 | 0.909 | 0.979 | 0.99 | 0.886 | 0.9 | 0.979
22 | NCI-H1755 | 1.07 | 1.04 | 1.06 | 0.959 | 0.968 | 1.07 | 0.979 | 0.964 | 0.992 | 0.962
23 | NCI-H1792 | 1.05 |  | 1.32 | 1.01 | 0.811 | 0.984 | 0.987 |  | 0.963 | 0.826
24 | NCI-H1793 | 1.14 | 1.01 | 0.938 | 1.04 | 0.823 | 0.954 | 0.946 | 0.78 | 0.878 | 0.882
25 | NCI-H1915 | 0.973 | 0.856 | 1.12 | 1.01 | 0.973 | 0.958 | 0.998 | 0.705 | 0.93 | 0.954
26 | NCI-H1944 | 1.11 | 1.01 | 0.975 | 0.962 | 1 | 0.985 | 0.96 | 0.784 | 1.05 | 0.941
27 | NCI-H1975 | 0.93 | 0.82 | 1.01 | 1.04 | 0.935 | 1 | 0.951 | 0.934 | 0.85 | 0.869
28 | NCI-H1993 | 0.98 | 0.857 | 1.02 | 1 | 1.1 | 0.948 | 0.995 | 0.779 | 0.941 | 0.789
29 | NCI-H2009 | 1.03 | 1.03 | 1.02 | 0.993 | 0.906 | 1.04 | 0.982 | 1.03 | 1.02 | 0.947
30 | NCI-H2023 | 1.15 | 0.996 | 1.06 | 0.955 | 0.781 | 1.06 | 0.935 | 1.09 | 1.08 | 0.843
31 | NCI-H2085 | 1.08 | 0.976 | 1.02 | 0.947 | 1.01 | 1.03 | 1 | 0.982 | 1.04 | 1.01
32 | NCI-H2087 | 1.16 | 0.931 | 1.07 | 0.989 | 0.968 | 1.13 | 1.15 | 0.861 | 0.997 | 0.953
33 | NCI-H2126 | 1.07 | 0.921 | 1.08 | 1.05 | 0.985 | 1.1 | 0.993 | 0.958 | 0.995 | 0.893
34 | NCI-H2170 | 1.21 | 0.984 | 1.04 | 0.996 | 0.935 | 0.961 | 0.976 | 0.995 | 0.887 | 0.978
